The values below come from article PMC10198183 (Frontiers in drug discovery, 2022).

The subject of one series is C. albicans. The experiment in a line: Broth microdilution susceptibility test (CLSI M27-A4), C. albicans. The series is classed as cell-based. Conditions: RPMI 1640, 30 °C, 24–48 h, mean of triplicate; for MIC: read-out: MIC75 C. albicans. The protocol: (§1) Broth microdilution susceptibility test: The minimum inhibitory concentrations (MIC75) were determined by the broth microdilution method according to the Clinical and Laboratory Standards Institute (CLSI) M27-A4 standard ([CLSI, 2017])). Briefly, a suspension of C. albicans or C. glabrata culture (~0.5–2.5 × 10^3 cells/ml) was resuspended in RPMI 1640 media (Fisher Catalog number 11875093). The resuspended culture was further incubated with 100 μl of two-fold serially diluted test compounds (100–0.8 μM and 1.0 μM to 7 nM) at 30 °C for 24–48 h. Positive and negative control (wells without antifungal agents and wells without yeast) were conducted. Increased optical density (OD) corresponds to the Candida growth and was quantified by comparison with untreated Candida control samples. The MIC75 of test compounds was determined visually and spectrophotometrically (OD600) after 24–48 h. Experiments were run in triplicate, and data was reported as a mean.

For a further series, the system named is C. glabrata. The experiment in a line: Broth microdilution susceptibility test (CLSI M27-A4), C. glabrata. Conditions: RPMI 1640, 30 °C, 24–48 h, mean of triplicate; for MIC: read-out: MIC75 C. glabrata. It is filed as cell-based. The protocol: as §1
For orientation: Dilution methods test growth across graded concentrations, often in twofold steps.

For a further series, the target named is human Cyp3A4 (Homo sapiens, UniProt P08684). Conditions: for IC50: read-out: CYP 3A4 IC50, human Cyp3A4 supersomes, 2 μM midazolam, 30 min at 37°C.
Chain of human Cyp3A4 (P08684 2-503 limits assumed): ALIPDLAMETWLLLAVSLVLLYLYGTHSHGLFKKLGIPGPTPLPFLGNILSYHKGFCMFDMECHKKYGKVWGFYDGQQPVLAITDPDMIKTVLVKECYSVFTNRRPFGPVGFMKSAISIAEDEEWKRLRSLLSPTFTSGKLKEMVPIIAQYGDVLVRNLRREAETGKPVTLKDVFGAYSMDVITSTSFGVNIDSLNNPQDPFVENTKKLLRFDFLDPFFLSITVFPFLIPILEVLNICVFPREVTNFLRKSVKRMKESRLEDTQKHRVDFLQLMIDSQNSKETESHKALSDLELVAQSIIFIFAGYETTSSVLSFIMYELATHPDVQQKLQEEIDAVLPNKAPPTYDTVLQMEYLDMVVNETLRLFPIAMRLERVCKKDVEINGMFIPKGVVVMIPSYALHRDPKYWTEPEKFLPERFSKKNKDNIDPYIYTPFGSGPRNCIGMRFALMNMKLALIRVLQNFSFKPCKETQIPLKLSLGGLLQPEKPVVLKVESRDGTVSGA

Structures are written as SMILES. Converted amounts (≈) assume the structure as drawn. Where two headings read alike, the source gives them in different places.

On to `CC(=O)N1CCN(c2ccc(OC[C@H]3CO[C@](Cn4ccnc4)(c4ccc(Cl)cc4Cl)O3)cc2)CC1` (racemic) [Entry 2, (±)-Ketoconazole, reference compound], for which the results for the MIC with C. albicans (Candida albicans), in the series on C. glabrata (Nakaseomyces glabratus) and in the series on C. glabrata were 250 nM (≈ 0.133 µg/mL), 250 nM (≈ 0.133 µg/mL) and 500 nM (≈ 0.266 µg/mL), respectively.

For the compound `C[C@@H]1[C@H](O)[C@@H](C)/C=C/C=C/C=C/C=C/C=C/C=C/C=C/[C@H](O[C@@H]2O[C@H](C)[C@@H](O)[C@H](N)[C@@H]2O)C[C@@H]2O[C@](O)(C[C@@H](O)C[C@@H](O)[C@H](O)CC[C@@H](O)C[C@@H](O)CC(=O)O[C@H]1C)C[C@H](O)[C@H]2C(=O)O` [Amphotericin B, reference compound], the MIC with C. albicans (Candida albicans) and with C. glabrata (Nakaseomyces glabratus) was 250 nM (≈ 0.231 µg/mL) in each case.

In the case of `CS(=O)(=O)N1CCN(c2ccc(OC[C@@H]3CO[C@@](Cn4ccnc4)(c4ccc(Cl)cc4Cl)O3)cc2)CC1` [Entry 3a], the MIC with C. albicans was found to be 125 nM (≈ 0.0709 µg/mL).

For the compound `CCS(=O)(=O)N1CCN(c2ccc(OC[C@@H]3CO[C@@](Cn4ccnc4)(c4ccc(Cl)cc4Cl)O3)cc2)CC1` [Entry 3b], the MIC in the series on C. albicans was found to be 125 nM (≈ 0.0727 µg/mL); in the series with C. glabrata, 500 nM (≈ 0.291 µg/mL).

In the case of `CCCS(=O)(=O)N1CCN(c2ccc(OC[C@@H]3CO[C@@](Cn4ccnc4)(c4ccc(Cl)cc4Cl)O3)cc2)CC1` [Entry 3c], the MIC is on record as 125 nM (≈ 0.0744 µg/mL) with C. albicans and 500 nM (≈ 0.298 µg/mL) with C. glabrata. The IC50 (as a rule, the concentration needed to halve the response being measured) at human Cyp3A4 worked out at 75.6 nM.

On to `CC(C)S(=O)(=O)N1CCN(c2ccc(OC[C@@H]3CO[C@@](Cn4ccnc4)(c4ccc(Cl)cc4Cl)O3)cc2)CC1` [Entry 3d], for which the “MIC75 C. albicans” value in the series with C. albicans was “complete loss of in vitro antifungal activity and N.E”. Moreover, in the series with C. glabrata, the “MIC75 C. glabrata” value was “complete loss of in vitro antifungal activity and N.E”.

Regarding `O=S(=O)(C1CC1)N1CCN(c2ccc(OCC3COC(Cn4ccnc4)(c4ccc(Cl)cc4Cl)O3)cc2)CC1` (stereo not shown) [Entry 3e], the MIC in the series with C. albicans and in the series on C. glabrata was 800 nM (≈ 0.475 µg/mL) in each case.

Consider `N#CCS(=O)(=O)N1CCN(c2ccc(OC[C@@H]3CO[C@@](Cn4ccnc4)(c4ccc(Cl)cc4Cl)O3)cc2)CC1` [Entry 3g], for which the MIC with C. albicans turned out to be 250 nM (≈ 0.148 µg/mL); with C. glabrata, 500 nM (≈ 0.296 µg/mL).

Turning to `CS(=O)(=O)CS(=O)(=O)N1CCN(c2ccc(OC[C@@H]3CO[C@@](Cn4ccnc4)(c4ccc(Cl)cc4Cl)O3)cc2)CC1` [Entry 3h], the results for the MIC with C. albicans and with C. glabrata were 800 nM (≈ 0.516 µg/mL) and 6250 nM (≈ 4.03 µg/mL), respectively.

Turning to `O=S(=O)(N1CCN(c2ccc(OC[C@@H]3CO[C@@](Cn4ccnc4)(c4ccc(Cl)cc4Cl)O3)cc2)CC1)C(F)(F)F` [Entry 3i], the MIC with C. albicans is given as 800 nM (≈ 0.497 µg/mL); in the series on C. glabrata it was 1600 nM (≈ 0.994 µg/mL).

Turning to `O=S(=O)(CC(F)(F)F)N1CCN(c2ccc(OC[C@@H]3CO[C@@](Cn4ccnc4)(c4ccc(Cl)cc4Cl)O3)cc2)CC1` [Entry 3j], the MIC with C. albicans was 1600 nM (≈ 1.02 µg/mL); in the series on C. glabrata, 800 nM (≈ 0.508 µg/mL). In addition, the IC50 on human Cyp3A4 came out at 450 nM.

Regarding `O=S(=O)(CCC(F)(F)F)N1CCN(c2ccc(OC[C@@H]3CO[C@@](Cn4ccnc4)(c4ccc(Cl)cc4Cl)O3)cc2)CC1` [Entry 3k], the MIC in the series with C. albicans amounted to 1600 nM (≈ 1.04 µg/mL). In the series on C. glabrata, the “MIC75 C. glabrata” value is “no effect and N.E”. The IC50 at human Cyp3A4 is 249 nM.

`O=S(=O)(CC(F)F)N1CCN(c2ccc(OC[C@@H]3CO[C@@](Cn4ccnc4)(c4ccc(Cl)cc4Cl)O3)cc2)CC1` [Entry 3l]: the MIC was determined as 62 nM (≈ 0.0383 µg/mL) with C. albicans and 250 nM (≈ 0.154 µg/mL) in the series on C. glabrata. The “improvement in selectivity (Cyp3A4 versus C. albicans) relative to (±)-Ketoconazole (2)” value at human Cyp3A4 (3l versus 2) amounted to 5 fold. The “window between Cyp3A4 inhibition and activity against C. albicans” value on human Cyp3A4 (Cyp3A4 IC50 versus C. albicans MIC75) came to 2.6 fold. The IC50 at human Cyp3A4 worked out at 162 nM.

For `CC(=O)N1CCN(c2ccc(OC[C@@H]3CO[C@@](Cn4ccnc4)(c4ccc(Cl)cc4Cl)O3)cc2)CC1` [Entry 4, (2S, 4R)-Ketoconazole, reference compound], the MIC with C. albicans (Candida albicans) amounted to 125 nM (≈ 0.0664 µg/mL); in the series with C. glabrata (Nakaseomyces glabratus), 500 nM (≈ 0.266 µg/mL).
